Each block holds one compound with its values, some of them ahead of it.
Assays:
[1] = test system: NCI-H69 cells; test: Cell viability assay (trypan blue dye exclusion); format: cell-based, human; settings: 100 ng/ml; for increase in viable cell number: 10% FCS, 72 hours; for effect on cell survival: without serum
Description: Ten small cell lung cancer (SCLC) cell lines (NCI-H69, NCI-H82, NCI-H128, NCI-H146, NCI-H209, NCI-H249, NCI-H345, NCI-H446, NCI-H510, and NCI-H526) were purchased from the American Type Culture Collection (Rockville, Md.) and maintained in RPMI 1640 medium (Cellgro) supplemented with 10% (v/v) fetal calf serum (FCS). MO7e cells were maintained as described in Sattler, M. et al. (1997) J. Biol. Chem. 272:10248-53. All cell lines were incubated at 37° C. in a 5% CO2 humidified atmosphere and harvested during log phase growth. Cells were deprived of growth factors by incubation in RPMI 1640 medium containing 0.5% (w/v) bovine serum albumin (BSA) (Sigma, St. Louis, Mo.) for 18 hours. In some experiments, cells were treated with 5 μM STI571 (Gleevec™, Novartis Pharmaceuticals, Basel, Switzerland) or 25 μM LY294002 (Sigma).
Viable cells were counted by trypan blue dye exclusion test every 24 hours up to 72 hours. Data was plotted as the mean±SD from three independent experiments. Student's t test was used for the statistical analysis of viable cell number under individual conditions. Differences were considered statistically significant at p<0.05.

[2] = test system: NCI-H446 cells; test: Phase contrast microscopy of SDF-1α induced adhesion/morphology with LY294002; format: cell-based, human; settings: SDF-1α 100 ng/ml, 24 hour time point
Description: (§1) Phase-contrast photomicrographs were taken at various time points (0, 1, 2, 4, 8, and 24 hours). For LY294002 studies, starved NCI-H446 cells (1×10^6) were resuspended in serum free media and placed onto a 35 mm tissue culture dish (Becton Dickinson Labware).
Phase-contrast microscopy pictures were taken at the 24 hour time point. Most of the untreated cells kept their rounded shape and formed clusters, and nearly half of them attached weakly to the bottom of the dish.

[3] = test system: NCI-H69 cells; test: Phase contrast microscopy of morphological changes with SDF-1α, SCF and STI571; format: cell-based, human; settings: for morphological change of NCI-H69 cells in response to ligand: 100 ng/ml, pictures after 8 hours
Description: as §1
It has not been shown previously that there is a functional interaction between CXCR4 and c-Kit in SCLC. […] Phase-contrast microscopy pictures were then taken after 8 hours. Morphological changes began to be apparent at 4 hours, and the changes plateaued between 8 and 24 hours. […] Inhibition of the active c-Kit receptor by STI571 may lead to the inhibition of other active receptors such as CXCR4.

[4] = test system: tyrosine phosphorylation of cellular proteins in NCI-H69 cells; test: Immunoblotting of tyrosine phosphorylation of cellular proteins (4G10); format: cell-based, human
Description: (§2) Cells were lysed in lysis buffer (20 mM Tris pH 8.0, 150 mM NaCl, 10% glycerol, 1% NP-40, 0.42% NaF) containing protease inhibitors (1 mM PMSF, 1 mM Na3VO4, 5 μg/ml aprotinin, 5 μg/ml leupeptin). Cell lysates were separated by 7.5% SDS-PAGE under reducing conditions and transferred to nitrocellulose membranes (Schleicher & Schuell, Dassel, Germany). Proteins were detected by immunoblotting using an enhanced chemiluminescence technique (NEN Life Science Products, Mass.). Rabbit polyclonal antibodies against c-Kit (C-19; Santa Cruz Biotechnology, Inc., Santa Cruz, Calif.), Akt, Akt (pSer 473), Akt (pThr 308), p70 S6 kinase, and p70 S6 kinase (pThr 389) (Cell Signaling Technology, Inc., Beverly, Mass.) and monoclonal antibodies against […]-actin (AC-15; Sigma, St. Louis, Mo.) and phosphotyrosine (4G10, UBI, Lake Placid, N.Y.) were used.
(§3) The activity of the PI3-K downstream targets Akt and p70 S6 kinase is regulated through critical serine/threonine (Ser/The) residues (Franke, T. F. et al. (1997) Cell 88:435-7; Pullen, N. and Thomas, G. (1997) FEBS Lett 410:78-82). […] Cell lysates were applied to a 7.5% SDS-PAGE gel and transferred to nitrocellulose membrane. The membrane was probed with monoclonal antibodies against phosphotyrosine (4G10) and β-actin and polyclonal antibodies against Akt (pSer 473) and p70 S6 kinase (S6K) (pThr 389). […] On the other hand, maximal tyrosine phosphorylation of proteins at 60-90 kDa and 110-145 kDa occurred within 2.5-7.5 minutes in response to SCF.

[5] = test system: Akt and p70 S6 kinase; test: Immunoblotting of Akt and p70 S6 kinase phosphorylation; format: cell-based, human; settings: for time to phosphorylation of Akt (Ser 473) and p70 S6 kinase (Thr 389): 50 ng/ml, serum starved NCI-H69 cells
Description: as §2, §3
Lysates were processed as described above in Example 6, and the membrane was probed with the phospho-specific or regular antibodies against Akt and p70 S6 kinase, as well as with an anti-c-Kit antibody. […] The expression levels of Akt, p70 S6 kinase, and c-Kit were not affected by any of these treatments.

[6] = biological target: human c-Kit (human); test: cell-based or functional assay

Compound: SDF-1α: Recombinant human SDF-1α, natural ligand for CXCR4, member of the CXC chemokine family
increase in viable cell number [1]: 15.5%
effect on cell survival [1]: neither SCF nor SDF-1α showed any effect
adhesion and morphology of cells with SDF-1α [2]: almost all cells tightly adhered to the bottom of the dish and neurite like projections were induced in many cells
morphological change of NCI-H69 cells in response to ligand [3]: more apparent as projections
time to tyrosine phosphorylated bands between 70-120 kDa ([4]; SDF-1α 50 ng/ml, serum starved NCI-H69 cells): ≤ 15 min
time to phosphorylation of Akt (Ser 473) and p70 S6 kinase (Thr 389) [5]: ≤ 5 min

Compound: O=c1cc(N2CCOCC2)oc2c(-c3ccccc3)cccc12 [LY294002, reference compound]
cells floating with rounded shapes in spite of SDF-1α treatment ([2]; LY294002 25 μM): more than 90%

Compound: SCF: Recombinant human stem cell factor, natural ligand of c-Kit
increase in viable cell number [1]: 16.5%
cell proliferation induced, as compared with untreated control ([1]; media containing 10% FCS, 48 hours): 21.5%
effect on cell survival [1]: neither SCF nor SDF-1α showed any effect
morphological change of NCI-H69 cells in response to ligand [3]: Neurite like actin formations were observed
concentration giving optimal phosphorylation of cellular proteins (dose-response studies) ([4]; NCI-H69 cells): ≥ 10 ng/mL
time of maximal tyrosine phosphorylation of proteins at 60-90 kDa and 110-145 kDa ([4]; SCF 50 ng/ml, serum starved NCI-H69 cells): 2.5-7.5 minutes
time to phosphorylation of Akt (Ser 473) and p70 S6 kinase (Thr 389) [5]: ≤ 2.5 min

The next lines start with results.

effect of pre-treatment on SCF induced phosphorylation of Akt and p70 S6 kinase ([5]; STI571 5 μM or LY294002 25 μM overnight, then 50 ng/ml SCF 15 minutes, NCI-H69 cells): inhibited
Compound: Cc1ccc(NC(=O)c2ccc(CN3CCN(C)CC3)cc2)cc1Nc1nccc(-c2cccnc2)n1 [STI571]
inhibition of the morphological changes ([3]; STI571 5 μM): only in the presence of SCF
neurite like projections induced by SDF-1α alone in the presence of STI571 ([3]; STI571 5 μM, SDF-1α 100 ng/ml): still formed
neurite like structures in STI571 treated cells stimulated with both SDF-1α and SCF ([3]; STI571 5 μM, SDF-1α 100 ng/ml and SCF 100 ng/ml): could not form any neurite like structures

concentration for optimal phosphorylation of cellular proteins in NCI-H69 cells (immunoblot, dose-response) [6]: 10 ng/mL
time to phosphorylation of Akt (Ser 473) and p70 S6 kinase (Thr 389) in NCI-H69 cells, 50 ng/ml SCF [6]: < 2.5 min
Compound: Recombinant human SCF (stem cell factor) (from UniProt P21583 26-189) (ligand)
cell proliferation of NCI-H69 cells (viable cell count, trypan blue), 10% FCS, 100 ng/ml SCF, 48 hours, increase compared with untreated control [6]: 21.5%
